According to patent publication US20060247156A1, “Use of neuropeptides for ligament, cartilage, and bone healing” (priority 2004, published 2006):
“Also recorded” adds a separate entry of the source.

Tested on: ruptured MCL of a surgical sympathectomy (SS) rat
Assay: Local neuropeptide delivery to ruptured MCL of surgical sympathectomy (SS) rats: mechanical testing, histomorphology
Type: in vivo
Conditions: for failure force / ultimate stress / mechanical strength of healing MCL (in words): two weeks of healing; for mechanical strength of healing MCL (in words): local delivery
From the text: Surgical Procedure: Thirteen female Wistar rats (306 g to 339 g) were divided into two groups: surgical sympathectomy (SS) or sham control. All rats were anesthetized with isofluorane as described in Example 1. A transperitoneal approach was used. The lower abdomen was shaved and prepared for surgery. A skin incision approximately 25 mm long was made. Fascia and abdominal muscle were incised. Abdominal organs were displaced. With the aid of a dissecting microscope, fascia surrounding the deep muscle tissue was separated (with minimal disruption to the muscle tissue) to expose the post-ganglionic sympathetic nerves. The L1-4 nerves were isolated and transected (with removal of a 5 mm segment of the nerves) in the surgical sympathectomy group only. In both groups, the deep muscle tissue was returned to its initial position and abdominal organs were replaced. Abdominal muscles and skin were closed in two layers with a 3-0 or 4-0 continuous dexon suture. Rats from each group (n=4 SS; n=3 controls) then underwent a complete surgical rupture of the MCL to one knee. The contra-lateral knee underwent sham surgery. […] Two weeks post-surgery, rats were sacrificed using an overdose of pentobarbitone (150 mg/kg).
Local delivery of NPs and NP inhibitors is important to identify the specific roles of individual NPs on healing tissues. An animal model for the local delivery of NPs has been developed and is presented in this Example. Briefly, NP infused mini-osmotic pumps were implanted subcutaneously into the back of rats. A small catheter running from the pump to an intramuscular space above the MCL was secured to the rat.
To test whether autonomic NPs improve healing in SS-ruptured MCLs, three female Wistar rats (193 g to 204 g) were given VIP locally to the MCL. Vasoactive intestinal peptide (75 pg/μl) was infused into a mini-osmotic pump and was delivered to a ruptured MCL of a surgical sympathectomy (SS) rat (see surgical procedure above). Within minutes of surgical intervention, all rats recovered and had normal movement and behavior (grooming, feeding, etc.). […] The results are presented graphically in FIG. 6.
Animal Model and Surgery: Thirty-seven female Wistar rats (199-298 g) were divided into five groups. […] Rats that were designated to receive SP or CGRP underwent bilateral femoral nerve transection (see previous examples). Rats that were designated to receive NPY, VIP, or a combination of NPY and VIP underwent bilateral surgical sympathectomy. Following surgical nerve transection, each rat also underwent bilateral MCL rupture. Neuropeptides were then delivered ruptured MCLs unilaterally. Neuropeptide infused mini-osmotic pumps (Alzet Corp.) were implanted subcutaneously into the back of each rat. A small catheter running from the pump was run to an intramuscular space above the MCL and was secured. To ensure that neuropeptides are delivered directly to the MCL, rhodamine labeled SP was delivered via a catheter to the MCL (n=2 rats).
Within minutes of surgical intervention, all rats recovered and had normal movement and behavior (grooming, feeding, etc.). To test whether autonomic NPs improve healing in SS ruptured MCLs, seven rats were given VIP, seven rats were given NPY, and seven rats were given a combination of VIP and NPY. […]
Mechanical Testing: Mechanical testing was performed as described in the preceding examples. Briefly, animal hind limbs from all groups (n=4 for all groups) were disarticulated at the hip joint and stored at −80° C. until testing. On the day of testing, MCLs including intact femoral and tibial bone sections were excised for ex vivo testing. Ligament thickness and width was measured optically, and MCL area was estimated with elliptical geometry. For strain measurements, optical markers were placed onto the ligament tissue near the insertion sites. […]

[1] = Example 3: VIP 75 pg/μl via mini-osmotic pump to ruptured MCL of SS rat
[2] = Example 6: SS rats, bilateral MCL rupture, mini-osmotic pump (NPY 65 pg/100 μl; VIP 100 pg/100 μl; or both)

## vasoactive intestinal peptide [VIP]
[1]
  failure force: 44.23 N
  ultimate stress: 29.63 MPa
[2]
  failure force: 44.2±3.1 N
  ultimate stress: 29.6±10.0 MPa
SS rats, VIP or NPY, two weeks
  histomorphology (H&E) of healing MCL: more aligned
SS rats
  mechanical strength of healing MCL (in words): greater than the strength of uninjured MCLs; also recorded: completely reversed the functional deficits
SS rats, listed as Vasoactive intestinal peptide
  mechanical strength of healing MCL (in words): greater strength than intact, normally innervated MCLs
